In publication PMC11459966, “Oral pharmacokinetics and efficacy of oral phospholipid remdesivir nucleoside prodrugs against SARS-CoV-2 in mice” (Antimicrobial Agents and Chemotherapy, 2024):
Where two headings read alike, the source gives them in different places. Marks after values point to notes of the source that are not given here.

Legend:
[1] = test system: SARS-CoV-2 B.1.351 (Beta variant); type: in vivo, BALB/c mice; settings: for reduction of lung titers: mouse, in vivo, po, 80 mg/kg; for effect on lung titers at day 4 post-infection / lung titers vs limit of detection at day 4 post-infection / weight loss at 2 dpi compared to vehicle-treated mice / effect on lung titers at day 2 / effect on lung titers at 4 dpi (significant reduction) / lung histopathology scores at 4 dpi: prophylaxis; for effect on lung titers at day 4 post-infection: 27 mg/kg or 80 mg/kg once daily PO; for antiviral effects on lung titers at 2 dpi: prophylaxis, 8, 27 or 80 mg/kg once daily PO; for lung titers vs limit of detection at day 4 post-infection: once daily PO, for V2067 even at 8 mg/kg; for weight loss at 2 dpi compared to vehicle-treated mice: V2043 80 mg/kg, V2053 27 and 80 mg/kg, V2067 all doses; for weight loss at 2 dpi compared to vehicle-treated mice / effect on lung titers at 4 dpi (significant reduction): obeldesivir 10 or 30 mg/kg BID; for effect on lung titers at day 2: EIDD-2801 100 mg/kg BID, GS-5245 10 or 30 mg/kg BID; for effect on lung titers at day 2 / effect on lung titers at 4 dpi (significant reduction): PO; for effect on lung titers at 4 dpi (significant reduction): comparators: EIDD-2801 100 mg/kg BID, remdesivir 25 mg/kg BID; for lung histopathology scores at 4 dpi: GS-5245 30 mg/kg BID, V2053 8 mg/kg, H&E
[2] = test system: SARS-CoV-2 B.1.351 (Beta variant); type: in vivo, BALB/c mice; settings: for level of infectious SARS-CoV-2 in the lung at 2 dpi compared to vehicle: V2043, V2053, V2067 at 27 or 80 mg/kg; for lung infectious units vs limit of detection at 4 dpi: V2043 and V2067 27 and 80 mg/kg, V2053 80 mg/kg once daily, EIDD-2801 100 mg/kg BID, GS-5245 30 mg/kg BID; for Daily dose required to reach below the limit of detection on day 4 post-infection / Molar daily dose required to reach below the limit of detection on day 4 post-infection / reduction of lung infectious units compared to vehicle: mouse, in vivo; for reduction of lung infectious units compared to vehicle: po, 80 mg/kg; for lung titers reduced to below the limit of detection at 4 dpi: GS-5245 10 mg/kg BID, remdesivir 25 mg/kg BID
[3] = daily dose derived from prophylaxis experiment (Fig. 4)

CCCCCCCCCCCCCCCCCCOC[C@H](COP(=O)(O)OC[C@H]1O[C@@](C#N)(c2ccc3c(N)ncnn23)[C@H](O)[C@@H]1O)OCc1ccccc1 [Compound V2043, 1-O-octadecyl-2-O-benzyl-sn-glyceryl-P-RVn]
reduction of lung titers [1]: 2.29 Log10
effect on lung titers at day 4 post-infection [1]: significantly reduced lung titers
antiviral effects on lung titers at 2 dpi [1]: dose-dependent antiviral effects
lung titers vs limit of detection at day 4 post-infection [1]: below the limit of detection in all animals
weight loss at 2 dpi compared to vehicle-treated mice [1]: lost less weight
level of infectious SARS-CoV-2 in the lung at 2 dpi compared to vehicle [2]: significantly reduced
lung infectious units vs limit of detection at 4 dpi [2]: below the limit of detection in all animals
Daily dose required to reach below the limit of detection on day 4 post-infection [2]: 27 mg/kg
Molar daily dose required to reach below the limit of detection on day 4 post-infection [2]: 34.3 µmol/kg
reduction of lung infectious units compared to vehicle [2]: 3.1 log10

CC(C)C(=O)OC[C@H]1O[C@@](C#N)(c2ccc3c(N)ncnn23)[C@H](O)[C@@H]1O [Obeldesivir GS-5245, reference compound]
effect on lung titers at day 2 [1]: significantly reduced lung titers
effect on lung titers at 4 dpi (significant reduction) [1]: did not
lung histopathology scores at 4 dpi [1]: small but significant reductions
weight loss at 2 dpi compared to vehicle-treated mice [1]: lost less weight
lung titers reduced to below the limit of detection at 4 dpi [2]: did not
lung infectious units vs limit of detection at 4 dpi [2]: reduced lung titers to below the limit of detection
Daily dose required to reach below the limit of detection on day 4 post-infection [2]: 60 mg/kg
Molar daily dose required to reach below the limit of detection on day 4 post-infection [2]: 166 µmol/kg

CCCCCCCCC=CCCCCCCCCOCC(COP(=O)(O)OCC1OC(C#N)(c2ccc3c(N)ncnn23)C(O)C1O)OCc1ccc(OC)c(F)c1 (stereo not drawn) [Compound V2053]
effect on lung titers at day 4 post-infection [1]: significantly reduced lung titers
antiviral effects on lung titers at 2 dpi [1]: dose-dependent antiviral effects
lung histopathology scores at 4 dpi [1]: small but significant reductions
weight loss at 2 dpi compared to vehicle-treated mice [1]: lost less weight
level of infectious SARS-CoV-2 in the lung at 2 dpi compared to vehicle [2]: significantly reduced
lung infectious units vs limit of detection at 4 dpi [2]: below the limit of detection in all animals
reduction of lung infectious units compared to vehicle [2]: 3.0 log10

CCCCCCCCCCCCCCCCCCOCC(COP(=O)(O)OC[C@H]1O[C@@](C#N)(c2ccc3c(N)ncnn23)[C@H](O)[C@@H]1O)OCc1ccc(C#N)cc1 (stereo partly drawn) [Compound V2067]
Daily dose required to reach below the limit of detection on day 4 post-infection [1, 3]: 8^a mg/kg
Fold ∆ vs MPV (molar daily dose) [1, 3]: 61.9×
Fold ∆ vs OBDV (molar daily dose) [1, 3]: 16.9×
Molar daily dose required to reach below the limit of detection on day 4 post-infection [1, 3]: 9.8 µmol/kg
reduction of lung titers [1]: 1.83 Log10
effect on lung titers at day 4 post-infection [1]: significantly reduced lung titers
antiviral effects on lung titers at 2 dpi [1]: dose-dependent antiviral effects
lung titers vs limit of detection at day 4 post-infection [1]: below the limit of detection in all animals
weight loss at 2 dpi compared to vehicle-treated mice [1]: lost less weight
level of infectious SARS-CoV-2 in the lung at 2 dpi compared to vehicle [2]: significantly reduced
lung infectious units vs limit of detection at 4 dpi [2]: below the limit of detection in all animals
Daily dose required to reach below the limit of detection on day 4 post-infection [2]: 27 mg/kg
Molar daily dose required to reach below the limit of detection on day 4 post-infection [2]: 33.2 µmol/kg
reduction of lung infectious units compared to vehicle [2]: 3.2 log10
Fold ∆ vs MPV (molar daily dose) ([2]; therapeutic model): 18.2×
Fold ∆ vs OBDV (molar daily dose) ([2]; therapeutic model): 5.0×

CC(C)C(=O)OC[C@H]1O[C@@H](n2ccc(NO)nc2=O)[C@H](O)[C@@H]1O [EIDD-2801, reference compound]
effect on lung titers at day 2 [1]: significantly reduced lung titers
effect on lung titers at 4 dpi (significant reduction) [1]: significantly reduced lung titers
lung infectious units vs limit of detection at 4 dpi [2]: reduced lung titers to below the limit of detection
Daily dose required to reach below the limit of detection on day 4 post-infection [2]: 200 mg/kg
Molar daily dose required to reach below the limit of detection on day 4 post-infection [2]: 607 µmol/kg

CCC(CC)COC(=O)[C@H](C)N[P@](=O)(OC[C@H]1O[C@@](C#N)(c2ccc3c(N)ncnn23)[C@H](O)[C@@H]1O)Oc1ccccc1 [remdesivir]
effect on lung titers at 4 dpi (significant reduction) [1]: did not
lung titers reduced to below the limit of detection at 4 dpi [2]: did not
